Laboratory results as given in patent publication US12036190B2, “Methods and compositions for the treatment of cytoplasmic glycogen storage disorders” (Duke University, priority 2015, dated 2024).
Where “and” joins values, the source holds several entries; their conditions need not be identical. Identical values can stand only once. Entries after “also recorded” stand apart in the source; their conditions may differ.

Key:
G6pc−/− mice = assay: Rapamycin treatment of GSD Ia (G6pc−/−) mice; type: in vivo; conditions: GSD Ia mouse livers, which began at 7-fold the levels of wildtype livers
Method: Candidate drugs for restoring autophagy in the GSD Ia liver were evaluated. Rapamycin is known to both have potent effects on activating autophagy as an mTORC1 inhibitor, and to regulate lipid metabolism due to its effect upon mTORC1. GSD Ia mice were treated with rapamycin daily for 7 days prior to evaluating effects upon autophagy and lipid accumulation in the liver.
G6pc−/− mice were given intraperitoneal injections of 5 mg/kg rapamycin suspended in 10% DMSO/90% PBS daily for 7 days starting on day 5 of life.
Treatment was sufficient to normalize G6pc−/− mice to the naturally low WT triglyceride levels.
Hepatic glycogen content was further analyzed using PAS staining to stain for polysaccharides, including glycogen, in liver sections. […] This confirms our hypothesis that manipulating autophagy can reduce glycogen accumulation by breaking it down through alternate routes from the traditional one relying on G6Pase, bypassing the need for G6Pase in GSD Ia hepatocytes.

[1] = test system: primary myoblasts from GSD IV mice; assay: rhGAA on primary myoblasts from GSD IV mice; type: cell-based, mouse
Method: Primary myoblast cells were isolated from 7-day-old GSD IV mouse skeletal muscle. Early passage cells were seeded in 10-cm culture dishes with EMEM medium containing 10% FBS. When cells reached 90% confluence, rhGAA was added to the culture medium (final activity=1000 nmol/hr/ml). […]
Reduction of glycogen deposition in GSD IV mouse myoblasts by rhGAA treatment was also confirmed by immunofluorescence staining using a mouse anti-glycogen monoclonal antibody ESG1A9mAb.

[2] = test system: primary muscle cells from GSD IIIa patients; assay: rhGAA on primary muscle cells from GSD IIIa patients; type: cell-based, human; conditions: GSD IIIa patient muscle cells
Method: FIG. 32 illustrates an analysis of the skeletal muscle biopsies from two GSD IIIa patients, a person (Pt. 1) and a person (Pt. 2). […] (FIG. 32B) Under EM, occasional lysosomal glycogen 1 (identified at the end of arrow) was also seen in the myocytes (scale bar=1 μm). […] (FIG. 32E) GAA activity in normal and patient cells 48 h after adding recombinant human acid alpha-glucosidase (rhGAA, Myozyme*, alglucosidase alfa) treatment. […] The significance of differences between two different groups was assessed using the two-tailed, equal variance student T-test ([…]).

GSD IV mice = assay: rhGAA enzyme replacement therapy in GSD IV mice; type: in vivo, mouse
Method: (§1) Methods: A short-term study was conducted to determine the minimum effective dose (MED) of rhGAA treatment with 3 dosages: 20 mg/kg (human equivalent dose, n=6), 40 mg/kg (n=9), and 100 mg/kg (n=8). Male GSD IV mice received weekly intravenous injections of rhGAA were conducted for 4 week starting at age of 10 weeks. A group of age-matched untreated mice (n=8) were used as controls. To prevent anaphylactic reactions, the animals were administered 25 mg/kg diphenhydramine (i.p.) 10-15 min prior to enzyme administration. All mice were sacrificed 48 hours after the last injection following overnight fasting. Fresh tissues were immediately frozen and stored at −80° C. until use for GAA activity and glycogen content analyses. Protein concentration was measured using BCA method.

GSD III mice = assay: rhGAA enzyme replacement therapy in GSD III mice; type: in vivo, mouse
Method: as §1, with “GSD III mice were used to test 3 dosages” for “A short-term study was conducted”, “treatment:” for “treatment with 3 dosages:”, “(n=6),” for “(human equivalent dose, n=6),”, “(n=5),” for “(n=9),”, “(n=7). Weekly” for “(n=8). Male GSD IV mice received weekly”

[3] = test system: patient with PRKAG2 pathogenic gene mutation; assay: Alglucosidase alfa ERT in a patient with PRKAG2 mutation; type: in vivo, human
From the text: A patient was born by caesarian section at 38 weeks gestation as a result of the nuchal cord being wrapped around their neck. The patient was noted to have hypotonia and generalized muscle weakness. They were are flexic and had feeding difficulties. The patient began developing severe lower respiratory infections which led to frequent admissions to the hospital. […] Following numerous recurrent pneumonias, and the history of muscle weakness, the patient's physicians raised Pompe disease as a potential diagnosis. […] Given the early findings of hypotonia and the low GAA enzyme activity, a diagnosis of non-classic infantile Pompe disease was made. The patient was initiated on ERT with alglucosdase alfa at a dose of 20 mg/kg every 2 weeks.
[…], the patient started ERT. They were belly crawling asymmetrically and was unable to achieve sitting from a prone or supine position. Due to weakness in their neck and trunk flexors, the patient consistently sat with their trunk completely collapsed in kyphotic position and their head propped up in capital extension in a chin poke position. […] They were able to crawl more efficiently, to achieve sitting independently from a prone or supine position, and to pull themself up into a standing posture without aid. […] […], the patient was able to walk independently with an age appropriate gait pattern and to climb small steps as well as jump off them without support. They were also able to transition independently into and out of any position, which helped them participate more fully in activities appropriate for their age.
Baseline assessments were done which included tests for AST (44 IU/L; normal range: <45 IU/L), ALT (20 IU/L; normal range: 9-80 IU/L), along with PT measures looking at muscle strength and function measures. […] Upon examination, the patient has developed more defined calf muscles, along with an improvement of […] strength and power. […] has grown physically stronger and has not had episodes in which […] lacks energy for consecutive days, becomes completely floppy, and is unable to hold their head up properly following a seizure.
At baseline, according to the MABC assessment, the patient achieved a Total Test Score of 68 ranking them in the 25th percentile. Five months after reinitiation of ERT, the patient achieved a Total Test Score of 73 on […] MABC assessment, ranking them in the 37th percentile. A minimal detectable change (MDC) for the MABC has been reported as 1.21 points, representing a true change in motor function. The results in this child show an increase of 5 points over 5 months, which is greater than the minimal important difference (MID) of the MABC, which has been reported as a change of 2.5 points shown over 6 months.

[4] = rhGAA 1000 nmol/hr/ml, 24 hours
[5] = weekly for 4 weeks at 20, 40 or 100 mg/kg, data not shown
[6] = reassessment 5 months post ERT, initial 3

## CO[C@H]1C[C@@H]2CC[C@@H](C)[C@@](O)(O2)C(=O)C(=O)N2CCCC[C@H]2C(=O)O[C@H]([C@H](C)C[C@@H]2CC[C@@H](O)[C@H](OC)C2)CC(=O)[C@H](C)/C=C(\C)[C@@H](O)[C@@H](OC)C(=O)[C@H](C)C[C@H](C)/C=C/C=C/C=C/1C [Rapamycin, rapamycin]
G6pc−/− mice
  reduction of hepatic triglycerides: 50%

## rhGAA: recombinant human acid alpha-glucosidase (rhGAA, Myozyme, alglucosidase alfa), FDA approved therapy for Pompe disease
[1]; 4 hours
  reduction of glycogen (immunofluorescence, ESG1A9mAb): obvious
[1]; 24 hours
  reduction of glycogen (immunofluorescence, ESG1A9mAb): more evident
[1]; [4]
  decrease of glycogen content: 24%
  increase of GAA activity: 50%
[1]; versus untreated cells
  glycogen content: significantly reduced glycogen content; also recorded: significantly (p<0.01) reduced
[2]
  glycogen content: significantly reduced glycogen levels; also recorded: significantly reduced glycogen content; also recorded: significantly reduced glycogen concentration
GSD IV mice; 20 mg/kg
  GAA activity in heart, increase: 1.7 fold
  glycogen content in tissues: failed to reduce glycogen in any tissue; also recorded: not significant
GSD IV mice; 20 mg/kg weekly IV for 4 weeks
  GAA activity in liver, increase over untreated controls: 29 folds
GSD IV mice; 40 mg and 100 mg treatment
  decrease of liver glycogen: 21-25%
GSD IV mice; 40 mg/kg
  GAA activity in heart, increase: 2.8 fold
  change of glycogen content in liver: −21%
GSD IV mice; 40 mg/kg weekly IV for 4 weeks
  GAA activity in liver, increase over untreated controls: 48 folds
GSD IV mice; 40 mg/kg, untreated 5.8±0.2%, p<0.05
  liver/body weight ratio: 5.0±0.2%
GSD IV mice; 40 mg/kg, untreated 1029±87 U/L, p<0.01
  plasma alanine aminotransferase (ALT): 650±32 U/L
GSD IV mice; 40 mg/kg, untreated 1059±93 U/L, p=0.074
  plasma aspartate aminotransferase (AST): 849±50 U/L
GSD IV mice; 100 mg/kg
  GAA activity in skeletal muscles, increase: 1.6 folds
  change of glycogen content in liver: −25%
GSD IV mice; 100 mg/kg weekly IV for 4 weeks
  GAA activity in liver, increase over untreated controls: 67 folds
GSD IV mice; 40 and 100 mg/kg
  glycogen content in skeletal muscle: not in any skeletal muscle
GSD IV mice; either dosage (20, 40 mg/kg)
  GAA activity in quadriceps, increase: negligible
GSD IV mice; either treated group (20, 40 mg/kg)
  GAA activity in gastrocnemius, increase: less than 1 fold
GSD IV mice; [5]
  anti-GAA antibodies compared with those reported in GAA-KO mice: significantly less
GSD III mice; 20 mg treatment
  glycogen content in tissues: did not affect glycogen content in any tissues
GSD III mice; 40 mg and 100 mg treatment
  decrease of liver glycogen: 24-25%
GSD III mice; 40 mg and 100 mg treatments
  glycogen content in heart: significantly reduced glycogen contents
  glycogen content in liver: significantly reduced glycogen contents
  ratio of liver/body weight: reduced ratio of liver/body weight
GSD III mice; weekly IV for 4 weeks
  GAA enzyme uptake, order of GAA activity by tissue: liver>heart>diaphragm>leg muscles
GSD III mice; [5]
  anti-GAA antibodies compared with those reported in GAA-KO mice: significantly less
[3]; after five months of reinitiated ERT
  neurological, occupational therapy and physical therapy reports: significant improvement
[3]; first ERT course, 20 mg/kg every 2 weeks, three months after initiation
  gross motor abilities: began improving
[3]; over 5 months of ERT
  Movement ABC increase of Total Score: 5 points
  Movement ABC percentile increase: 12
[3]; re-assessment 5 months on ERT, pre-ERT 25th percentile
  Movement ABC Percentile: 37 percentile and 37th percentile
[3]; re-assessment 5 months on ERT, pre-ERT 68
  Movement ABC Total Score: 73
[3]; [6]
  M-FUN Fine Motor Scaled Score: 5 (considered mild/borderline
  M-FUN Gross Motor Scaled Score: 3 (considered very low/severe
[3]; reassessment 5 months post ERT, initial 6
  M-FUN Visual Motor Scaled Score: 9 (considered “average” or
[3]; reassessment 5 months post ERT, initial 288
  M-FUN Gross Motor Progress Score: 407
[3]; reassessment 5 months post ERT, initial 292
  M-FUN Fine Motor Progress Score: 394
[3]; reassessment 5 months post ERT, initial 374
  M-FUN Visual Motor Progress Score: 496
[3]; reassessment at five months of ERT
  fatigue at assessment: less fatigue
